Experiments:
NMDA receptor = assay: Whole-cell patch clamp of NMDA-induced current in hippocampal neurons; assay type: cell-based, rat; conditions: for pooled NMDA current responses (normalized peak and plateau currents) / recovery of NMDA-induced current after compound was washed out: compound 500 uM co-applied with NMDA 200 uM; for pooled NMDA current responses (normalized peak and plateau currents): vs DMSO, n=6; for recovery of NMDA-induced current after compound was washed out: single hippocampal neuron
Protocol: Hippocampal neurons were prepared from embryonic day 18 Sprague-Dawley rats. After the hippocampus had been removed from the brain, isolated cells were plated onto Poly d-Lysine (PDL) (P0899, Sigma)-coated 35 mm dishes (153066, NUNC) at a density of 3×10^5 cell per plate using Neurobasal Medium (NB) (21103-049, Gibco) with B27 supplement (17504-044, Gibco), penicillin/streptomycin (15140, Gibco) and 1 mM L-glutamine (25030, Gibco). The cell culture was incubated at 37° C. in a humidified atmosphere of 5% CO2 in air. Half of the medium was changed with NB, B27 and 50 μM L-glutamine every 2 to 3 days. On day 12 in vitro (12 DIV), whole-cell patch clamp was performed. The internal solution contained 120 mM cesium chloride, 20 mM tetraethylammonium chloride, 2 mM magnesium chloride, 1 mM calcium chloride and 10 mM HEPES (pH 7.2). The external solution contained 137 mM sodium chloride, 1 mM sodium bicarbonate, 0.34 mM sodium phosphate dibasic, 5.37 mM potassium chloride, 0.44 mM potassium phosphate monobasic, 2.5 mM HEPES (pH 7.4) and 22.2 mM glucose. Samples mixed with 50 μM NMDA (M3262, Sigma) were arranged in linear array of up to 8 individual controlled pipes (List Medical, Germany) which were connected to solution reservoirs. Memantine (10 μM, M9292, Sigma) was used as a positive control. Pipettes were fire-polished to produce a pipette resistance of 3-5 MΩ. Holding potential of patched cells was kept at −80 mV and currents were recorded using Axopatch-200B amplifier (Axon Instruments, USA). Tetrodotoxin (5 μM) and bicuculline methiodide (20 μM) (0109, Tocris) were present in the bath solution to block synaptic transmission mediated by voltage-gated sodium channels and […], respectively. Data was analyzed by pClamp9 software and percentage of inhibition on NMDA-induced current was represented in comparison to solvent control.
The NMDA receptor is a gated ion channel, which allows inflow of current during a nerve impulse. Antagonists to the receptor would prevent the inflow of current.
In FIG. 1A, hippocampal neurons from embryonic day 18 rats were isolated, trypsinized, plated onto 35-mm plates at a density of 3×10^4 cells/plate and cultured in Neurobasal medium (NB) supplemented with B27 nutrient. Rat hippocampal neurons (10-14 DIV) were treated with NMDA (50 μM) in the absence or presence of the compound LC-02 (10 μg/mL). Data is presented as % of NMDA-induced current. DMSO is the solvent control.
(§1) In FIG. 1B, NMDA antagonistic effect of LC-02 on current responses of a single hippocampal neuron. NMDA (200 uM) was applied for 2.5 sec every 30 sec but these inter-response intervals have been deleted from the above figure for a better resolution of the kinetics of individual responses (blank space in trace). LC-02 (500 uM) was co-applied with NMDA.
In FIG. 1C, effects of LC-02 on pooled NMDA current responses. Normalized peak and plateau currents are shown in the absence (DMSO) and presence of LC-02.
as §1, with “8, (a)” for “1B,”, “LC-06” for “LC-02”, “NMDA. […] (b) Effects of LC-06 on pooled NMDA current responses. Normalized peak and plateau currents are shown in the absence (DMSO) and presence of LC-06.” for “NMDA.”
as §1, with “9, (a)” for “1B,”, “LC-24” for “LC-02”, “NMDA. […] (b) Effects of LC-24 on pooled NMDA current responses. Normalized peak and plateau currents are shown in the absence (DMSO) and presence of LC-24. […]” for “NMDA.”

[1] = system: rat primary cortical neurons; assay: Neuron survival assay against NMDA insult (LDH release); assay type: cell-based; conditions: NMDA 20 μM; for protection of rat primary cortical neurons from NMDA insults (LDH release, fold change vs DMSO): compounds 10-30 μg/ml, 11 DIV; for cell death (LDH release, cell cytotoxicity vs DMSO): compound 10 μg/mL, DIV 11
Protocol: Primary cortical and hippocampal neurons were prepared from embryonic day 18 (E18) Sprague-Dawley rats. Neurons were plated on 24-well plate (TPP, Corning) at a density of 2×10^5 cells per well using Neurobasal medium (Invitrogen) supplemented with 2% B27 (Invitrogen). Neurons at 11-12 days in vitro (12 DIV) were subjected to drug treatment. Neurons were pretreated with the test compound for 2 hours prior to NMDA treatment. 0.1 μM (+)-MK-801 Hydrogen Maleate (Sigma) was added as a positive control. Briefly, the neurons were rinsed with Locke's solution (5 mM potassium chloride, 128 mM sodium chloride, 2.7 mM calcium chloride, 1 mM di-sodium hydrogen orthophosphate, 5 mM HEPES and 10 mM glucose in Milli-Q water) without Mg^2+, and incubated with addition of glycine (10 μM) for 15 minutes. After the incubation, the neurons were co-treated with the test compound (dissolved in Locke's plus glycine solution) and NMDA (20 μM; Sigma) for 20 minutes. Neurons were rinsed with Locke's plus Mg^2+ and replaced with fresh growth medium. The cell death was assayed and quantified using the lactate dehydrogenase release assay (Roche) after 24 hours.
Embryonic rat cortical neurons (11 DIV) were treated with NMDA (20 μM) in the absence or presence of the LC series of compounds (10-30 μg/ml). […] LDH release in the medium after overnight incubation was measured and fold change was calculated when compared to the solvent control, DMSO.
Embryonic rat cortical neurons (DIV 11) were treated with NMDA (20 μM) in the absence or presence of LC-01 or LC-02 (μg/mL). LDH release in the medium after overnight incubation was measured and cell cytotoxicity was calculated in percentage when compared to the solvent control, DMSO.
Embryonic rat cortical neurons (DIV 11) were treated with NMDA (20 μM) in the absence or presence of LC-06 (μg/mL). LDH release in the medium after overnight incubation was measured and cell cytotoxicity was calculated in percentage when compared to the solvent control, DMSO.
Embryonic rat cortical neurons (11 DIV) were treated with NMDA (20 μM) in the absence or presence of LC-24 or LC-25 (μg/mL). LDH release in the medium after overnight incubation was measured and cell cytotoxicity was calculated in percentage when compared to solvent control (DMSO).

SMILES | NMDA induced current in hippocampal neurons (NMDA receptor; compound 10 μg/mL with NMDA 50 μM, rat hippocampal neurons 10-14 DIV) | pooled NMDA current responses (normalized peak and plateau currents) (NMDA receptor) | recovery of NMDA-induced current after compound was washed out (NMDA receptor) | protection of rat primary cortical neurons from NMDA insults (LDH release, fold change vs DMSO) [1] | cell death (LDH release, cell cytotoxicity vs DMSO) [1]
CC[C@H]1N[C@@H](CC(C)C)C(CC)(CC)O1 [LC-02] | decreases in NMDA induced current | significantly inhibits NMDA-induced current | Partial recovery of NMDA-induced current | significantly protected | cell death was markedly reduced
CCCC1(CCC)O[C@@H](CC)N[C@H]1CC(C)C [LC-06] |  | significantly inhibits NMDA-induced current | Partial recovery of NMDA-induced current | significantly protected | cell death was markedly reduced
CC[C@H]1N[C@@H](Cc2ccccc2)C(CC)(CC)O1 [LC-24] |  | significantly inhibits NMDA-induced current | Partial recovery of NMDA-induced current | significantly protected | cell death was markedly reduced

Reference: patent US8722714B2, “Oxazolidine derivatives as NMDA antagonists” (The Honk Kong University of Science and Technology, priority 2008, dated 2014)
